Assay results from patent publication US20070117743A1, “New antitumoral compounds” (priority 2003, published 2007).
Where a SMILES comes first, the peptide text is derived from it. Bridges are numbered along the chain shown (N, C = ends). [ ]: non-standard residue; d: D form. The star is where a group is joined. d(aIle) = CC[C@H](C)[C@@H](N)C(=O)O; d(aThr) = C[C@@H](O)[C@@H](N)C(=O)O; Hexanoyl(5-Me) = CC(C)CCCC(=O)*; Orn = NCCC[C@H](N)C(=O)O; Dhb = C/C=C(\N)C(=O)O

Experiments:
Assay type in all cases: cell-based, human
LNCaP = assay: SRB colorimetric assay of cell growth and viability, LNCaP; details: 48 hours exposure; for GI50: read-out: GI50 LN-caP; for CC50: read-out: LC50 LN-caP
IGROV-1 = assay: SRB colorimetric assay of cell growth and viability, IGROV-1; details: 48 hours exposure
DU-145 = assay: SRB colorimetric assay of cell growth and viability, DU-145; details: 48 hours exposure
SK-MEL-28 = assay: SRB colorimetric assay of cell growth and viability, SK-MEL-28; details: 48 hours exposure; for CC50: read-out: LC50 MEL-28
HeLa = assay: SRB colorimetric assay of cell growth and viability, HeLa; details: 48 hours exposure; for CC50: read-out: LC50 HELA
PANC-1 = assay: SRB colorimetric assay of cell growth and viability, PANC-1; details: 48 hours exposure; for CC50: read-out: LC50 PANC-1
IGROV-ET = assay: SRB colorimetric assay of cell growth and viability, IGROV-ET; details: 48 hours exposure; for CC50: read-out: LC50 IGROV-ET
LoVo = assay: SRB colorimetric assay of cell growth and viability, LoVo; details: 48 hours exposure; for CC50: read-out: LC50 LOVO
HeLa-APL = assay: SRB colorimetric assay of cell growth and viability, HeLa-APL; details: 48 hours exposure; for CC50: read-out: LC50 HELA-APL
HT-29 = assay: SRB colorimetric assay of cell growth and viability, HT-29; details: 48 hours exposure; for GI50: read-out: GI50 HT-29; for CC50: read-out: LC50 HT-29
K-562 = assay: SRB colorimetric assay of cell growth and viability, K-562; details: 48 hours exposure; for CC50: read-out: LC50 K-562
SK-BR-3 = assay: SRB colorimetric assay of cell growth and viability, SK-BR-3; details: 48 hours exposure
A-549 = assay: SRB colorimetric assay of cell growth and viability, A-549; details: 48 hours exposure; for GI50: read-out: GI50 A-549; for CC50: read-out: LC50 A-549

Row | Structure (SMILES) | TGI LN-caP (LNCaP) [Molar] | GI50 (LNCaP) [µM] | CC50 (LNCaP) [µM] | GI50 (IGROV-1) [µM] | LC50 (concentration causing 50% net cell killing) (IGROV-1) [µM] | TGI IGROV (IGROV-1) [Molar] | GI50 (DU-145) [µM] | LC50 (concentration causing 50% net cell kill) (DU-145) [µM] | TGI DU-145 (DU-145) [Molar] | GI50 (SK-MEL-28) [µM] | TGI MEL-28 (SK-MEL-28) [Molar] | CC50 (SK-MEL-28) [µM] | GI50 (HeLa) [µM] | TGI HELA (HeLa) [Molar] | CC50 (HeLa) [µM] | GI50 (PANC-1) [µM] | TGI PANC-1 (PANC-1) [Molar] | CC50 (PANC-1) [µM] | GI50 (IGROV-ET) [µM] | TGI IGROV-ET (IGROV-ET) [Molar] | further results
1 | C/C=C1\NC(=O)[C@H](Cc2ccccc2)NC(=O)[C@@H](C(C)C)NC(=O)[C@@H]([C@@H](C)CC)NC(=O)[C@H](NC(=O)[C@H](NC(=O)[C@H](CCCN)NC(=O)[C@H]2CCCN2C(=O)[C@H](NC(=O)[C@@H](NC(=O)[C@@H](NC(=O)[C@H](NC(=O)CCCCCCCCCCCCCCCCCCC)C(C)C)[C@@H](C)O)C(C)C)C(C)C)[C@@H](C)CC)[C@@H](C)OC(=O)[C@H](C(C)C)NC1=O [Compound 13, [Icos^14]-KF] | 2.39E−06 | 1.21 | 4.73 | 1.36 | 4.68 | 2.52E−06 | 1.28 | 4.04 | 2.28E−06 | 1.25 | 2.21E−06 | 3.93 | 1.4 | 2.71E−06 | 5.25 | 2.02 | 5.48E−06 | 6.02 | 1.66 | 2.81E−06 | CC50 (IGROV-ET): 4.79 µM; GI50 (LoVo): 0.903 µM; TGI LOVO (LoVo): 1.79E−06 Molar; CC50 (LoVo): 3.58 µM; GI50 (HeLa-APL): 1.25 µM; CC50 (HeLa-APL): 3.98 µM; TGI HT-29 (HT-29): 2.32E−06 Molar; GI50 (HT-29): 1.26 µM; CC50 (HT-29): 4.28 µM; GI50 (K-562): 1.23 µM; TGI K-562 (K-562): 2.42E−06 Molar; CC50 (K-562): 4.71 µM; GI50 (SK-BR-3): 0.861 µM; LC50 (SK-BR-3): 3.99 µM; TGI SK-BR-3 (SK-BR-3): 1.86E−06 Molar; TGI A-549 (A-549): 2.13E−06 Molar; GI50 (A-549): 1.18 µM; CC50 (A-549): 3.82 µM
2 | C/C=C1\NC(=O)[C@H](Cc2ccccc2)NC(=O)[C@@H](C(C)C)NC(=O)[C@@H]([C@@H](C)CC)NC(=O)[C@H](NC(=O)[C@H](NC(=O)[C@H](CCCN)NC(=O)[C@H]2CCCN2C(=O)[C@H](NC(=O)[C@@H](NC(=O)[C@@H](NC(=O)[C@H](NC(=O)CCCNC(=N)N)C(C)C)[C@@H](C)O)C(C)C)C(C)C)[C@@H](C)CC)[C@@H](C)OC(=O)[C@H](C(C)C)NC1=O [Compound 29, [4-GuBut^14]-KF] | 6.70E−06 | 3.91 | 6.7 | 6.7 | 6.7 | 6.70E−06 | 6.7 | 6.7 | 6.70E−06 | 6.7 | 6.70E−06 | 6.7 | 6.7 | 6.70E−06 | 6.7 | 6.7 | 6.70E−06 | 6.7 | 6.7 | 6.70E−06 | CC50 (IGROV-ET): 6.7 µM; GI50 (LoVo): 5.45 µM; TGI LOVO (LoVo): 6.70E−06 Molar; CC50 (LoVo): 6.7 µM; GI50 (HeLa-APL): 6.7 µM; TGI HELA-APL (HeLa-APL): 6.70E−06 Molar; CC50 (HeLa-APL): 6.7 µM; TGI HT-29 (HT-29): 6.70E−06 Molar; GI50 (HT-29): 6.7 µM; CC50 (HT-29): 6.7 µM; GI50 (K-562): 6.7 µM; TGI K-562 (K-562): 6.70E−06 Molar; CC50 (K-562): 6.7 µM; GI50 (SK-BR-3): 6.7 µM; LC50 (SK-BR-3): 6.7 µM; TGI SK-BR-3 (SK-BR-3): 6.70E−06 Molar; TGI A-549 (A-549): 6.70E−06 Molar; GI50 (A-549): 6.7 µM; CC50 (A-549): 6.7 µM
3 | C/C=C1\NC(=O)[C@H](Cc2ccccc2)NC(=O)[C@@H](C(C)C)NC(=O)[C@@H]([C@@H](C)CC)NC(=O)[C@H](NC(=O)[C@H](NC(=O)[C@H](CCCN)NC(=O)[C@H]2CCCN2C(=O)[C@H](NC(=O)[C@H](CCC(N)=O)NC(=O)[C@@H](NC(=O)[C@H](NC(=O)CCCC(C)C)C(C)C)[C@@H](C)O)C(C)C)[C@@H](C)CC)[C@@H](C)OC(=O)[C@H](C(C)C)NC1=O [Compound 48, [Gln^11]-KF] ({Hexanoyl(5-Me)}-[dV]TQ[dV][dP][Orn][d(aIle)][d(aThr)][d(aIle)][dV]F[Dhb]V; ester 8-C) | 6.64E−06 | 3.1 | 6.64 | 6.64 | 6.64 | 6.64E−06 | 6.64 | 6.64 | 6.64E−06 | 6.64 | 6.64E−06 | 6.64 | 6.64 | 6.64E−06 | 6.64 | 5.1 | 6.64E−06 | 6.64 | 6.64 | 6.64E−06 | CC50 (IGROV-ET): 6.64 µM; GI50 (LoVo): 5.17 µM; TGI LOVO (LoVo): 6.64E−06 Molar; CC50 (LoVo): 6.64 µM; GI50 (HeLa-APL): 6.64 µM; TGI HELA-APL (HeLa-APL): 6.64E−06 Molar; CC50 (HeLa-APL): 6.64 µM; TGI HT-29 (HT-29): 6.64E−06 Molar; GI50 (HT-29): 6.64 µM; CC50 (HT-29): 6.64 µM; GI50 (K-562): 6.64 µM; TGI K-562 (K-562): 6.64E−06 Molar; CC50 (K-562): 6.64 µM; GI50 (SK-BR-3): 6.64 µM; LC50 (SK-BR-3): 6.64 µM; TGI SK-BR-3 (SK-BR-3): 6.64E−06 Molar; TGI A-549 (A-549): 6.64E−06 Molar; GI50 (A-549): 5.82 µM; CC50 (A-549): 6.64 µM
4 | C/C=C1\NC(=O)[C@H](Cc2ccccc2)NC(=O)[C@@H](C(C)C)NC(=O)[C@@H]([C@@H](C)CC)NC(=O)[C@H](NC(=O)[C@H](NC(=O)[C@H](CCCN)NC(=O)[C@H]2CCCN2C(=O)[C@H](NC(=O)[C@@H]2CCCN2C(=O)[C@@H](NC(=O)[C@H](NC(=O)CCCC(C)C)C(C)C)[C@@H](C)O)C(C)C)[C@@H](C)CC)[C@@H](C)OC(=O)[C@H](C(C)C)NC1=O [Compound 47, [Pro^11]-KF] ({Hexanoyl(5-Me)}-[dV]TP[dV][dP][Orn][d(aIle)][d(aThr)][d(aIle)][dV]F[Dhb]V; ester 8-C) | 6.78E−06 | 3.45 | 6.78 | 6.78 | 6.78 | 6.78E−06 | 6.78 | 6.78 | 6.78E−06 | 6.78 | 6.78E−06 | 6.78 | 6.78 | 6.78E−06 | 6.78 | 5.63 | 6.78E−06 | 6.78 | 6.78 | 6.78E−06 | CC50 (IGROV-ET): 6.78 µM; GI50 (LoVo): 5.85 µM; TGI LOVO (LoVo): 6.78E−06 Molar; CC50 (LoVo): 6.78 µM; GI50 (HeLa-APL): 6.78 µM; TGI HELA-APL (HeLa-APL): 6.78E−06 Molar; CC50 (HeLa-APL): 6.78 µM; TGI HT-29 (HT-29): 6.78E−06 Molar; GI50 (HT-29): 6.78 µM; CC50 (HT-29): 6.78 µM; GI50 (K-562): 6.78 µM; TGI K-562 (K-562): 6.78E−06 Molar; CC50 (K-562): 6.78 µM; GI50 (SK-BR-3): 6.78 µM; LC50 (SK-BR-3): 6.78 µM; TGI SK-BR-3 (SK-BR-3): 6.78E−06 Molar; TGI A-549 (A-549): 6.78E−06 Molar; GI50 (A-549): 6.78 µM; CC50 (A-549): 6.78 µM
